According to patent US20220031680A1, “Donecopride As Neuroprotective Agent In the Treatment of Neurodegenerative Diseases” (priority 2018, published 2022):
Marks after values point to notes of the source that are not given here.

System: rat primary hippocampal neurons injured with Aβ 1-42
Experiment: Number of synapses (PSD95/SYN overlap) in primary hippocampal neurons injured with Aβ1-42
Type: cell-based
Conditions: for Number of synapses (% of control): Aβ 1-42 (20 μM) in Table 5, 24 h; for number of synapses normalized by the number of neurons (formation of new synapses): Aβ 1-42 injured hippocampal neurons
Procedure: The hippocampal neurons were exposed with Aβ solutions (see below) after 17 days of culture. The Aβ1-42 preparation was done following the procedure described by Callizot et al. (2013) J. Neurosci. Res. 91706-716. Briefly, Aβ1-42 peptide was dissolved in the defined culture medium mentioned above, at an initial concentration of 40 μM. This solution was gently agitated for 3 days at 37° C. in the dark and immediately used after being properly diluted in culture medium to the concentrations used (20 μM (plate 1) or 2.5 μM (plate 2) corresponding to 2 μM or 0.25 μM of oligomers (AβO) respectively).
Donecopride fumarate was solved in culture medium and preincubated 1 h before Aβ application. Aβ1-42 preparation was added to a final concentration of 20 or 2.5 μM (=2 μM or 0.25 μM of AβO, evaluated by automatic Western Blot) diluted in control medium in presence of Donecopride.
24 hours after intoxication, the hippocampal neurons were fixed by a cold solution of ethanol (95%) and acetic acid (5%) for 5 min at −20° C. After permeabilization with 0.1% of saponin, cells were incubated for 2 h with:
a) mouse monoclonal antibody anti post synaptic density 95 kDa (PSD95) at a dilution of 1/100 in PBS containing 1% fetal calf serum and 0.1% of saponin.
b) Rabbit polyclonal antibody anti-synaptophysin (SYN) at the dilution of 1/100 in PBS containing 1% fetal calf serum and 0.1% of saponin.
For each condition, 40 pictures per well were taken using ImageXpress (Molecular Devices) with 40× magnification. All images were taken with the same acquisition parameters.
Synapses evaluation was performed automatically by using Custom module editor (Molecular Devices).
The following endpoints were assessed: • Total number of synapses (overlapping between PSD95/SYN).
To assess the formation of synapses, the distribution of PSD-95, a post-synaptic marker, and synaptophysin, a pre-synaptic marker, was studied. A structure positive for both PD-95 and synaptophysin staining was considered as a synapse.
Injury: The hippocampal neurons were exposed with Aβ solutions (see below) after 17 days of culture. The Aβ1-42 preparation was done following the procedure described by Callizot et al. (2013) J. Neurosci. Res. 91:706-716. The batch number of the Aβ1-42 used in this study contains 10% of oligomers (quantification by WB as performed in Combes et al. (2015) J. Neurosci. Res. 93:633-643). Briefly, Aβ1-42 peptide was dissolved in the defined culture medium mentioned above, at an initial concentration of 40 μmol/1. This solution was gently agitated for 3 days at 37° C. in the dark and immediately used after being properly diluted in culture medium to the concentrations used (20 μmol/l or 2.5 μmol/l corresponding to 2 μmol/l or 0.25 μmol/l of oligomers (AβO) respectively). Aβ1-42 preparation was added to a final concentration of 20 or 2.5 μmol/l (respectively 2 μmol/l or 0.25 μmol/l of AβO, determined by automatic WB) diluted in control medium in presence of the compounds.
Immunostaining: PSD95 and SYN—After fixation and permeabilization, cells were incubated for 2 hours with: • mouse monoclonal antibody anti post synaptic density 95 kDa (PSD95) at dilution of 1/200 in PBS containing 1% fetal calf serum and 0.1% saponin; • rabbit polyclonal antibody anti-synaptophysin (SYN) at the dilution of 1/100 in PBS containing 1% fetal calf serum and 0.1% saponin.
For each condition, 40 pictures per well were taken using ImageXpress (Molecular Devices) with 40× magnification. All images were taken with the same conditions. Synapses evaluation were performed automatically by using Custom Module Editor® (Molecular Devices). The following endpoints were assessed: • Number of synapses (overlapping between PSD95/SYN)

SMILES: COc1cc(N)c(F)cc1C(=O)CCC1CCN(CC2CCCCCC2)CC1 [MR36014]
- concentration up to which the effect on synapses is significant (Aβ1-42 injured hippocampal neurons, Example 5 (FIG. 12)): ≤ 50 µM

SMILES: COc1cc(N)c(Cl)cc1C(=O)CCC1CCN(CC2CCCCC2)CC1 [Donecopride]
- Number of synapses (% of control) (1 nM): 69 % of control
- Number of synapses (% of control) (5 nM): 83* % of control
- Number of synapses (% of control) (10 nM): 87* % of control
- Number of synapses (% of control) (50 nM): 91* % of control
- Number of synapses (% of control) (100 nM): 93* % of control
- Number of synapses (% of control) (500 nM): 94* % of control
- number of synapses normalized by the number of neurons (formation of new synapses) (500 nM): significantly promoted the formation of new synapses
- Number of synapses (% of control) (1 μM): 85* % of control

SMILES: COc1cc2c(cc1OC)C(=O)C(CC1CCN(Cc3ccccc3)CC1)C2 (centres unmarked) [Donepezil, reference compound]
- Number of synapses (% of control) (1 μM): 88* % of control
- number of synapses normalized by the number of neurons (formation of new synapses) (Donepezil group (1 μM)): no effect
